Results: publication PMC10065799, “High-throughput profiling of sequence recognition by tyrosine kinases and SH2 domains using bacterial peptide display” (eLife, 2023)

Experiments:
Assay in all cases: pTyr-Var library bacterial peptide display kinase screen (enrichment scores)
c-Src kinase domain = c-Src kinase domain (Homo sapiens, UniProt P12931); assay type: biochemical; conditions: sheet "Src";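 note: log2 fold change in enrichment of variant over reference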
EPHB2 kinase domain = assay type: biochemical, human; conditions: sheet EPHB2; effect of variant peptide relative to its reference peptide in the pTyr-Var library screen (enrichment scores)
EPHB1 kinase domain = assay type: biochemical, human; conditions: for Screen: sheet EPHB1, effect of the variant peptide relative to its reference peptide in the pTyr-Var library screen (enrichment scores); for Screen (variant relative to reference peptide, measured in the pTyr-Var library screen): sheet "EPHB1", variant seq vs reference seq, bacterial peptide display enrichment
Fer kinase domain = assay type: biochemical, mouse; conditions: sheet "Fer"
c-Abl kinase domain = target: T1, c-Abl kinase domain (Mus musculus, UniProt P00520); assay type: biochemical; conditions: fig5-data2, sheet "Abl"; Screen for the variant/reference peptide pair, pTyr-Var library;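 note: log2 fold change in enrichment of variant over reference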
T1 sequence (P00520 242-493 limits assumed): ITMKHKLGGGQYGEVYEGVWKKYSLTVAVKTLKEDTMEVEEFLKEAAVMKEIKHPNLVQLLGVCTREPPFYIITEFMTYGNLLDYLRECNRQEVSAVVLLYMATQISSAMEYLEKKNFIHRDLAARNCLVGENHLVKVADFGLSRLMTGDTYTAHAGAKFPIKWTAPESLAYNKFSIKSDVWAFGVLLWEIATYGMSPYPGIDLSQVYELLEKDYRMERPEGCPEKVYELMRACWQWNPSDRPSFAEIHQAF

[1] = effect of the variant peptide relative to its reference peptide in the pTyr-Var library screen
[2] = value of the variant peptide against its reference peptide in the pTyr-Var library screen with Fer
[3] = variant peptide versus its reference peptide in the pTyr-Var library screen
[4] = variant peptide relative to its reference peptide, pTyr-Var library screen enrichment

Sequence	Screen (c-Src kinase domain; [1])	Screen (EPHB2 kinase domain)	Screen (EPHB1 kinase domain)	Screen (Fer kinase domain; [2])	Screen (c-Abl kinase domain)	Screen (c-Src kinase domain; [3])	Screen (variant relative to reference peptide, measured in the pTyr-Var library screen) (EPHB1 kinase domain)	Screen (Fer kinase domain; [4])
SRDPFYEMLTA [CYTH1_Y382_A386T]	0.1014	0.7334	0.4954	-0.1692	–	–	–	–
SSSAIYDNPDL [DCP1B_Y191_N195D]	-1.087	-0.486	-0.6114	-0.4908	1.925	–	–	–
TLSGTYQFIIA [FOXL2_Y81_I80T_YF]	-2.746	-3.51	-3.534	-3.428	–	–	–	–
VARAVYQAVLS [SMG1_Y549_H546R]	–	-3.744	–	–	–	-1.809	-4.046	-2.673
VDGSVYELHPS [GCK_Y413_K414E]	1.442	2.546	2.239	4.734	–	–	–	–
VFLGAYDHFLP [SLC22A5_Y486_R488H_YF]	–	1.125	–	–	–	-0.3296	0.9383	2.03
VKANTYENFWP [GATM_Y100_K102N_YF]	0.5982	2.516	2.281	1.784	–	–	–	–
